The source of these data is publication PMC11676817, “Antiproliferative and Morphological Analysis Triggered by Drugs Contained in the Medicines for Malaria Venture COVID-Box Against Toxoplasma gondii Tachyzoites” (Microorganisms, 2024).

Structures are written as SMILES. Where “and” joins values, the source holds several entries; their conditions need not be identical. Identical values can stand only once.

In data set [1] the test system is Toxoplasma gondii tachyzoites of the RH strain. Conditions: read-out: IC50 (μM) in Tachyzoites; RH strain in NHDF cells, plaque assay, 7 days of treatment.
Data set [2] concerns T. gondii tachyzoites. Description: Transmission electron microscopy of treated tachyzoites. The format is cell-based, Toxoplasma gondii. Conditions: 1 µM, 48 h. Here is the method: NHDF cultures infected with T. gondii were treated with compounds and fixed with 2.5% glutaraldehyde (EM Grade—Ted Pella Inc., Redding, CA, USA) in 0.1 M sodium cacodylate buffer pH 7.4 (Ted Pella Inc.). Cells were post-fixed with 1% osmium tetroxide, 1.25% potassium ferrocyanide, and 5 mM CaCl2, in 0.1 M sodium cacodylate buffer (pH 7.4). The sample fixation and processing for microscopy were performed as previously described. Samples were dehydrated in alcohol solutions of increasing concentrations (35–100%) and embedded in epoxy resin (Polybed 812, Polysciences). Ultrathin sections were collected in copper grids 300 mesh (Ted Pella Inc.), stained with uranyl acetate and lead citrate, and then observed in a Fei TecNai G2 120 kV Spirit Electron Microscope (FEI Company, Eindhoven, The Netherlands).

The conditions of data set [3]: Human, cited from earlier work.
In data set [4] the test system is T. gondii tachyzoites. Conditions: 72 h of treatment; ref [23],[24]; read-out: IC50 against T. gondii; cited from earlier work.
Data set [5] relates to T. gondii tachyzoites. Description: Immunofluorescence microscopy of treated tachyzoites (aberrant cell division, rhoptry morphology). Conditions: 1 µM, 24 h, IMC1 and DAPI labeling.
Method: Rabbit anti-IMC1 (1:1000) and anti-ARO (1:1000) (kindly provided by Dr. Dominique Soldati, Universite de Geneve, Switzerland) were used to label the mother cell and daughter cell pellicles throughout the endodyogeny process and rhoptries, respectively. Mouse anti-SAG1 (1:200; kindly donated by Dr. Tiago Mineo, Universidade Federal de Uberlândia) was used to label the parasite plasma membrane. DAPI (2 µg/mL; Sigma-Aldrich, St. Louis, MO, USA) was used to label the DNA. […] After labeling with antibodies, the coverslips were mounted onto slides using Prolong gold (Life Technologies), and samples were examined on a Zeiss Axio Observer Z1 microscope (Baden-Württemberg, Germany) or Olympus BX60 microscope (Shinjuku City, Tokyo, Japan).
Data set [6] concerns T. gondii. The settings on record: in vivo administration, murine model of chronic toxoplasmosis; ref [23],[24]; cited from earlier work.
The test system of data set [7] is Toxoplasma gondii tachyzoites of the RH strain. Briefly: microbe, parasite or virus in culture. The settings on record: Toxoplasma gondii, 1000 nM. The format is cell-based.

For the molecule `C=CCNc1nc(NCC=C)nc(N2CCN(C(c3ccc(F)cc3)c3ccc(F)cc3)CC2)n1` [Almitrine], the IC50 was 0.33 ± 0.04 µM in data set [1]; 420 nM and 320 nM in data set [4]. In addition, the “Effect on T. gondii ultrastructure (TEM)” value in data set [2] is recorded as “induced myelin-like structures”. Moreover, the “Plasma concentration (Cmax)” value in data set [3] (ref Table S3 supplementary refs 1, 4, 8, 11, 13, 15, 17, 18, 19, 23, 31) is given as 286.2 ng/mL. Moreover, the Cmax in data set [3] (read-out: Plasma concentration (Cmax), ref Table S3 supplementary refs 1, 4, 8, 11, 13, 15, 17, 18, 19, 23) was 599 nM and ≤ 599 nM. In data set [5], the “Vacuoles containing tachyzoites with cell division alteration” value turned out to be 23.9%. Also, the “Effect on the number of cysts” value in data set [6] is “reduced the number of cysts”. Also, in data set [7] (24 h, read-out: Inhibition of parasite proliferation), the inhibition at 1 µM was in the range of 55 to 60%. Moreover, the activity at 1 µM in data set [7] (24 h of treatment, read-out: Proliferation index (%)) was found to be 44.1%.

As usually defined, the IC50 is the concentration that gives 50% inhibition.
